Patent publication US20050074447A1, “Treatment for diabetic microvascular and macrovascular complications” (priority 2003, published 2005)
Entries after “also recorded” stand apart in the source; their conditions may differ.

Columns and labels:
[1] = system: Rhesus monkey retinal endothelial cells (ATCC CRL-1780); experiment: MTS cell viability of retinal endothelial cells exposed to hyperglycemia and elevated FFA (palmitate), Example 1; type: cell-based; settings: hyperglycemia (25 mM glucose) and elevated FFA (1 and 2 mM palmitate), overnight
Method: Rhesus monkey retinal endothelial cells (ATCC CRL-1780) were cultured overnight in 96 well culture plates in a humidified incubator at 37° C., under either basal (5 mM) or hyperglycemic (25 mM) conditions in the absence FFA or in with a 1 and 2 mM palmitate concentration illustrating an elevated FFA environment. At the end of the incubation period endothelial cell viability was measured with the MTS assay and results were expressed relative to the control (5 mM glucose no FFA). The results are shown in Table 1, where error bars represent standard deviations from the mean of triplicate measurements per condition. The relative viability of endothelial cells exposed to hyperglycemia and elevated FFA, as compared to the control, was about 45%. The data in Table 1 illustrates that FFA are cytotoxic to retinal endothelial cells and that their cytotoxicity is enhanced by hyperglycemia. [drawing]

rat INS-1 β-cells = experiment: MTS cell viability: protection of INS-1 β-cells from STZ, Example 3; type: cell-based; settings: for protection of INS-1 cells from STZ (relative viability): different concentrations of alpha- or gamma-tocopherol, overnight pre-incubation, then 24 hours with STZ 1 mM
Method: INS-1 cells were cultured overnight in 96 well culture plates in a humidified incubator at 37° C., in the presence or absence of different concentrations of alpha- or gamma-tocopherol and then in the presence of a combination of equimolar parts of gamma- and alpha-tocopherol (25 μM gamma-, 25 μM alpha-tocopherol). The cells at each condition were then cultured for an additional 24 hours either in the presence or absence of STZ (1 mM). Alpha-tocopherol and gamma-tocopherol concentrations in each well were kept the same as those used in the pre-incubation phase. Cell viability was measured with the MTS assay. Results were normalized and values were expressed relative to control (relative viability).

[2] = system: Retinal endothelial cells; experiment: MTS cell viability: protection of retinal endothelial cells from 25 mM glucose and 2 mM palmitate, Example 2; type: cell-based, Rhesus monkey; settings: tocopherol used alone; overnight pre-incubation, then 8 hours with 25 mM glucose and 2 mM palmitate
Method: Retinal endothelial cells were cultured overnight in 96 well culture plates in a humidified incubator at 37° C., in the presence or absence of either 50 μM of alpha-tocopherol, 50 μM of gamma-tocopherol or 25 μM alpha-tocopherol plus 25 μM gamma-tocopherol when used in combination. The cells at each condition were then cultured for an additional 8 hours either in the presence or absence of 25 mM glucose and 2 mM palmitate. Alpha-tocopherol and gamma-tocopherol concentrations in each well were kept the same as those used in the pre-incubation phase. Cell viability was measured with the MTS assay. Results were normalized and values were expressed relative to basal glucose control (relative viability).

In the case of `CCCCCCCCCCCCCCCC(=O)O` [palmitate], the “relative viability of endothelial cells as compared to the control (5 mM glucose no FFA)” value [1] is reported as “about 45%”.

In the case of `Cc1c(O)cc2c(c1C)O[C@](C)(CCC[C@H](C)CCC[C@H](C)CCCC(C)C)CC2` [gamma-tocopherol], the “protection of INS-1 cells from STZ (relative viability)” value (rat INS-1 β-cells) is reported as “protected from these effects in a dose dependent manner; also recorded: more effective than alpha-tocopherol”.

In the case of `Cc1c(C)c2c(c(C)c1O)CC[C@@](C)(CCC[C@H](C)CCC[C@H](C)CCCC(C)C)O2` [alpha-tocopherol], the “relative cell viability (relative to basal glucose control)” value [2] is reported as 40 to 50% and the “protection of INS-1 cells from STZ (relative viability)” value (rat INS-1 β-cells) is reported as “protected from these effects in a dose dependent manner”.

With `CN(N=O)C(=O)N[C@@H]1[C@@H](O)[C@H](O)[C@@H](CO)O[C@@H]1O` [STZ] the “effect of STZ on viability of INS-1 cells” value (rat INS-1 β-cells; STZ 1 mM, 24 hours) was “reduced viability”.
